Assays:
[1] = Particle size analysis of dry-milled products (laser diffraction, Shimadzu SALD-2300); format: physicochemical
Experimental: Milling was performed for Examples 1a to 1c using an air jet mill (Equipment code: CP-AJM-01; Promas engineers) with the following parameters: Micronisation was repeated in all examples by performing the air jet milling for a second time using the same parameters. This allowed the particle size D90 to be reduced to less than 10 μm. [table] Four drops of Tween 20 were added to 25 mL of water and the mixture was sonicated for 3 minutes to form the dispersant solution. 0.05 g of milled material was transferred into a 250 mL glass beaker. 25 mL of the dispersant solution (Tween 20/water mixture) was added to the beaker with continuous swirling for 2 to 3 minutes. The suspension was transferred into the measuring unit and the particle size distribution measurements were conducted in triplicate.

[2] = Single dose oral pharmacokinetic studies in rabbits; format: in vivo, male New Zealand White rabbits; details: for Plasma concentration, mean: 90 mg/kg b.w. oral; for AUCextrap / AUC(0-inf) / AUC(0-t) / Cmax / MRT last / Tmax / half-life: 90 mg/kg b.w. oral single dose; for AUC(0-inf) / AUC(0-t) / Cmax / MRT last / Tmax / half-life: male, New Zealand White, plasma, po, 90 mg/kg
Experimental: The studies detailed below (and referred to as Examples 2 to 8) were conducted to provide comparative single dose oral pharmacokinetics data for Compound 1, as well as sodium and potassium salts of that compound, using non-coated and enteric-coated capsules in male New Zealand White rabbits.
Compound 1 was made using the process described in WO 2011/004162 and milled as described for Example 1c. The non-coated or enteric coated gelatin capsules were individually filled with 180 mg of dry-milled Compound 1 together with accompanying excipients as indicated. Both capsule types were filled with Compound 1 together with 1.8 mg of sodium docusate, 0.18 mg of PVP K30 and 9 mg of mannitol.
Similarly, Compound 2, non-coated or enteric coated gelatin capsules were individually filled with 180 mg of dry-milled Compound 2 (as obtained in Example 1f) together with 1.8 mg of sodium docusate, 0.18 mg of PVP K30 and 9 mg of mannitol.
For Compound 3, non-coated or enteric coated gelatin capsules were individually filled with 90 mg of dry-milled Compound 3 (as obtained in Example 1i) together with 0.90 mg of sodium docusate, 0.09 mg of PVP K30 and 4.50 mg of mannitol.
40 mL of the 2% w/v methyl cellulose solution was added to a 250 mL conical flask together with 10 g of 2 mm glass beads, and vigorously stirred. Compound 1 (720 mg) was slowly added to the solution and the mixture was with continuously stirred for 1 h. The homogenate was transferred to separate flask and its pH recorded. The suspension formulation was prepared before administration to the animals.
Adult healthy male New Zealand white rabbits aged approximately 2 to 3 months old were used for experimentation after 7 days of acclimatization.
To dose the filled capsules, a soft plastic dosing tube was used. The filled capsule was inserted into the dosing tube so that the short end of the capsule protrudes slightly from the tip of the tube. The tip of the capsule was dipped in mineral oil to aid swallowing.
To dose the suspension, an infant feeding tube was used. The feeding tube was inserted through the mouth of the rabbit to the oesophagus and the stomach, and ascertained that it has not been placed in the trachea before dosing to the animals. The suspension of the Compound 1 was administered through the feeding tube. After the administration of the suspension, drinking water of approximately 2.0-2.5 mL was administered to flush out the contents in the feeding tube.
The animals were restrained in a rabbit restrainer and blood samples (400-500 μL/time point) were collected via the central ear artery at 0.16, 0.25, 0.50, 1.0, 2.0, 4.0, 6.0, 8.0, 24.0, 48.0 and 72 hours post-dosing. Collected blood specimens were centrifuged at 4000 or 6000 rpm, 4° C. for 10 minutes and plasma samples were separated and stored at −80° C. until analysis.
Concentrations of the analyte of Compound 1 in New Zealand white rabbits was determined using an API 3200 Q-trap LC-MS/MS system.
Chromatographic separation was achieved on Zorbax C18, 50×4.6 mm, 5 μm column with methanol-0.1% formic acid as mobile phase with gradient elution. The flow rate was set at 1.0 mL min^−1. Detection was accomplished by a triple-quadrupole tandem mass spectrometer in multiple-reaction monitoring (MRM) scanning via electrospray ionization source, applied in the positive mode. The optimised mass transition ion-pairs for quantitation were m/z 379.999→125.000 for the compound 1 and m/z 376.165→165.00 for the ISD (Haloperidol). Calibration plots were linear over the range of 11.062 to 20594.820 ng/mL.
The data of plasma concentration to respective time points for the analyte Compound 1 were used for the pharmacokinetic analysis. Pharmacokinetic analysis was performed using non-compartmental analysis (NCA) module of Phoenix WinNonlin 6.3 software to determine the following pharmacokinetic parameters: • Cmax • Tmax • AUC0-t • AUC0-∞ • T1/2 • MRT […]

[3] = after 1st milling (air jet mill)
[4] = after 2nd milling (air jet mill)
[5] = rabbit, enteric coated capsule, rabbit plasma (Examples 5, 6, 7)
[6] = rabbit, non-coated capsule, rabbit plasma (Examples 2, 3, 4)

Particle size distribution D10 [1, 3]: 0.382 μm
Particle size distribution D50 [1, 3]: 3.64 μm
Particle size distribution D90 [1, 3]: 26.2 μm
Particle size distribution D100 [1, 3]: 584 μm
Particle size distribution D10 [1, 4]: 0.289 μm
Particle size distribution D50 [1, 4]: 1.57 μm
Particle size distribution D90 [1, 4]: 11.7 μm
Particle size distribution D100 [1, 4]: 35.3 μm
Particle size distribution D10 ([1]; before milling): 0.876 μm
Particle size distribution D50 ([1]; before milling): 13.4 μm
Particle size distribution D90 ([1]; before milling): 205 μm
Particle size distribution D100 ([1]; before milling): 665 μm
Plasma concentration, mean ([2]; 0.00 h, enteric coated capsule, rabbit): 0.000 ng/mL
Plasma concentration, mean ([2]; 0.00 h, non-coated capsule, rabbit): 0.000 ng/mL
Plasma concentration, mean ([2]; 0.16 h, enteric coated capsule, rabbit): 0.000 ng/mL
Plasma concentration, mean ([2]; 0.16 h, non-coated capsule, rabbit): 169.000 ng/mL
Plasma concentration, mean ([2]; 0.25 h, enteric coated capsule, rabbit): 0.000 ng/mL
Plasma concentration, mean ([2]; 0.25 h, non-coated capsule, rabbit): 255.336 ng/mL
Plasma concentration, mean ([2]; 0.50 h, enteric coated capsule, rabbit): 0.000 ng/mL
Plasma concentration, mean ([2]; 0.50 h, non-coated capsule, rabbit): 457.796 ng/mL
Plasma concentration, mean ([2]; 1.00 h, enteric coated capsule, rabbit): 4.721 ng/mL
Plasma concentration, mean ([2]; 1.00 h, non-coated capsule, rabbit): 2349.624 ng/mL
Plasma concentration, mean ([2]; 2.00 h, enteric coated capsule, rabbit): 93.881 ng/mL
Plasma concentration, mean ([2]; 2.00 h, non-coated capsule, rabbit): 4456.537 ng/mL
Plasma concentration, mean ([2]; 4.00 h, enteric coated capsule, rabbit): 2558.779 ng/mL
Plasma concentration, mean ([2]; 4.00 h, non-coated capsule, rabbit): 16997.495 ng/mL
Plasma concentration, mean ([2]; 6.00 h, enteric coated capsule, rabbit): 7906.592 ng/mL
Plasma concentration, mean ([2]; 6.00 h, non-coated capsule, rabbit): 21418.736 ng/mL
Plasma concentration, mean ([2]; 8.00 h, enteric coated capsule, rabbit): 16147.149 ng/mL
Plasma concentration, mean ([2]; 8.00 h, non-coated capsule, rabbit): 39754.464 ng/mL
Plasma concentration, mean ([2]; 24.00 h, enteric coated capsule, rabbit): 66084.614 ng/mL
Plasma concentration, mean ([2]; 24.00 h, non-coated capsule, rabbit): 75168.570 ng/mL
Plasma concentration, mean ([2]; 48.00 h, enteric coated capsule, rabbit): 79465.599 ng/mL
Plasma concentration, mean ([2]; 48.00 h, non-coated capsule, rabbit): 77379.051 ng/mL
Plasma concentration, mean ([2]; 72.00 h, enteric coated capsule, rabbit): 49785.289 ng/mL
Plasma concentration, mean ([2]; 72.00 h, non-coated capsule, rabbit): 60164.693 ng/mL
improvement in systemic exposure compared with the milled free base active ingredient ([2]; dry milled, capsules, 90 mg/kg oral, rabbit): more modest improvement
AUCextrap ([2]; enteric coated capsule, rabbit plasma (Examples 5, 6, 7)): 69.48 ± 19.80%
AUC(0-inf) [2, 5]: 18600 ± 13800 µg·h/mL
AUC(0-t) [2, 5]: 3990 ± 43.3 µg·h/mL
Cmax [2, 5]: 79500 ± 5430 ng/mL
MRT last [2, 5]: 42 ± 0.696 h
Tmax [2, 5]: 48 h
half-life [2, 5]: 189 ± 158 h
AUC(0-inf) [2, 6]: 9370 ± 3380 µg·h/mL
AUC(0-t) [2, 6]: 4530 ± 589 µg·h/mL
Cmax [2, 6]: 81900 ± 10400 ng/mL
MRT last [2, 6]: 39.6 ± 3.88 h
Tmax [2, 6]: 40 ± 13.9 h
half-life [2, 6]: 71.6 ± 22.6 h
AUCextrap ([2]; non-coated capsule, rabbit plasma (Examples 2, 3, 4)): 52.23 ± 10.63%
SMILES: O=C(Nc1nc(=O)n(Cc2ccc(Cl)cc2)s1)c1ccc(Cl)cc1.[K] [Compound 3, 4-chloro-N-[2-[(4-chlorophenyl)methyl]-3-oxo-1,2,4-thiadiazol-5-yl]benzamide potassium salt]

Source: patent US12162850B2, “Formulations” (Betagenon AB, priority 2019, dated 2024)
